# Test results reported in patent EP1027361B1, “6,11-BRIDGED ERYTHROMYCIN DERIVATIVES” (Abbott Laboratories, priority 1997, dated 1999).
# What was measured:
# Assay in all cases: in vitro antibacterial activity, agar dilution MIC
# Assay type in all cases: cell-based
# [1] = test system: Enterococcus faecium ATCC 8043; details: organism code II, BHI agar, 35-37 °C, 20 to 24 hours
# Experimental: (§1) Erythromycin A was used for this purpose.
# (§2) After incubation, each plate was visually inspected.
# Escherichia coli JUHL = details: organism code QQ, BHI agar, 35-37 °C, 20 to 24 hours
# Experimental: as §1, §2
# Escherichia coli SS = details: organism code RR, BHI agar, 35-37 °C, 20 to 24 hours
# Experimental: as §1, §2
# [2] = test system: Haemophilis Influenzae DILL AMP R; details: organism code WW, BHI agar, 35-37 °C, 20 to 24 hours
# Experimental: as §1, §2
# [3] = test system: Micrococcus luteus ATCC 4698; details: organism code PP, BHI agar, 35-37 °C, 20 to 24 hours
# Experimental: as §1, §2
# [4] = test system: Micrococcus luteus ATCC 9341; details: organism code OO, BHI agar, 35-37 °C, 20 to 24 hours
# Experimental: as §1, §2
# [5] = test system: Nocardia Asteroides ATCC9970; details: organism code VV, BHI agar, 35-37 °C, 20 to 24 hours
# Experimental: as §1, §2
# [6] = test system: Staphylococcus aureus CMX 553; details: organism code FF, BHI agar, 35-37 °C, 20 to 24 hours
# Experimental: as §1, §2
# [7] = test system: Staphylococcus aureus CMX 642A; details: organism code DD, BHI agar, 35-37 °C, 20 to 24 hours
# Experimental: as §1, §2
# [8] = test system: Staphylococcus aureus NCTC10649M; details: organism code EE, BHI agar, 35-37 °C, 20 to 24 hours
# Experimental: as §1, §2
# [9] = test system: Staphylococcus epidermidis 3519; details: organism code HH, BHI agar, 35-37 °C, 20 to 24 hours
# Experimental: as §1, §2
# [10] = test system: Streptococcus Pheumoniae 5649; details: organism code ZZA, BHI agar, 35-37 °C, 20 to 24 hours
# Experimental: as §1, §2
# [11] = test system: Streptococcus Pheumoniae GYR 1171; details: organism code YY, BHI agar, 35-37 °C, 20 to 24 hours
# Experimental: as §1, §2
# [12] = test system: Staphylococcus aureus ATCC 6538P; design: unit not given here; details: organism code AA, BHI agar, 35-37 °C, 20 to 24 hours
# Experimental: as §1, §2
# [13] = test system: Streptococcus Pheumoniae ATCC6303; design: unit not given here; details: organism code XX, BHI agar, 35-37 °C, 20 to 24 hours
# Experimental: as §1, §2
# [14] = test system: Streptococcus agalactiae CMX 508; design: unit not given here; details: organism code KK, BHI agar, 35-37 °C, 20 to 24 hours
# Experimental: as §1, §2
# [15] = test system: Streptococcus bovis A-5169; design: unit not given here; details: organism code JJ, BHI agar, 35-37 °C, 20 to 24 hours
# Experimental: as §1, §2
# [16] = test system: Streptococcus pyogenes EES61; design: unit not given here; details: organism code LL, BHI agar, 35-37 °C, 20 to 24 hours
# Experimental: as §1, §2
# Candida albicans CCH 442 = details: organism code TT, BHI agar, 35-37 °C, 20 to 24 hours
# Experimental: (§3) Representative compounds of the present invention were assayed in vitro for antibacterial activity as follows: Twelve petri dishes containing successive aqueous dilutions of the test compound mixed with 10 mL of sterilized Brain Heart Infusion (BHI) agar (Difco 0418-01-5) were prepared. Each plate was inoculated with 1:100 (or 1:10 for slow-growing strains, such as Micrococcus and Streptococcus) dilutions of up to 32 different microorganisms, using a Steers replicator block. […] In addition, a control plate, using BHI agar containing no test compound, was prepared and incubated at the beginning and end of each test
# (§4) An additional plate containing a compound having known susceptibility patterns for the organisms being tested and belonging to the same antibiotic class as the test compound was also prepared and incubated as a further control, as well as to provide test-to-test comparability.
# (§5) After incubation, each plate was visually inspected. The minimum inhibitory concentration (MIC) was defined as the lowest concentration of drug yielding no growth, a slight haze, or sparsely isolated colonies on the inoculum spot as compared to the growth control.
# Escherichia coli DC-2 = details: organism code SS, BHI agar, 35-37 °C, 20 to 24 hours
# Experimental: as §3, §4, §5
# [17] = test system: Staphylococcus aureus 1775; details: organism code GG, BHI agar, 35-37 °C, 20 to 24 hours
# Experimental: as §3, §4, §5
# [18] = test system: Staphylococcus aureus A-5278; details: organism code CC, BHI agar, 35-37 °C, 20 to 24 hours
# Experimental: as §3, §4, §5
# [19] = test system: Streptococcus Pheumoniae 5979; details: organism code ZZ, BHI agar, 35-37 °C, 20 to 24 hours
# Experimental: as §3, §4, §5
# [20] = test system: Streptococcus pyogenes 930; details: organism code MM, BHI agar, 35-37 °C, 20 to 24 hours
# Experimental: as §3, §4, §5
# [21] = test system: Streptococcus pyogenes PIU 2548; details: organism code NN, BHI agar, 35-37 °C, 20 to 24 hours
# Experimental: as §3, §4, §5
# [22] = test system: Mycobacterium smegmatis ATCC 114; design: unit not given here; details: organism code UU, BHI agar, 35-37 °C, 20 to 24 hours
# Experimental: as §3, §4, §5
# [23] = test system: Staphylococcus aureus A5177; design: unit not given here; details: organism code BB, BHI agar, 35-37 °C, 20 to 24 hours
# Experimental: as §3, §4, §5
Compound,minimum inhibitory concentration (MIC) [1],minimum inhibitory concentration (MIC) (Escherichia coli JUHL),minimum inhibitory concentration (MIC) (Escherichia coli SS),minimum inhibitory concentration (MIC) [2],minimum inhibitory concentration (MIC) [3],minimum inhibitory concentration (MIC) [4],minimum inhibitory concentration (MIC) [5],minimum inhibitory concentration (MIC) [6],minimum inhibitory concentration (MIC) [7],minimum inhibitory concentration (MIC) [8],minimum inhibitory concentration (MIC) [9],minimum inhibitory concentration (MIC) [10],minimum inhibitory concentration (MIC) [11],minimum inhibitory concentration (MIC) [12],minimum inhibitory concentration (MIC) [13],minimum inhibitory concentration (MIC) [14],minimum inhibitory concentration (MIC) [15],minimum inhibitory concentration (MIC) [16],minimum inhibitory concentration (MIC) (Candida albicans CCH 442),minimum inhibitory concentration (MIC) (Escherichia coli DC-2),also measured
"CC[C@H]1OC(=O)[C@H](C)C(=O)[C@H](C)[C@@H](O[C@@H]2O[C@H](C)C[C@H](N(C)C)[C@H]2O)[C@@]2(C)C[C@@H](C)C(=O)[C@H](C)[C@H]3N(CC=CCO2)C(=O)O[C@]13C [Example 16, Compound of Formula (II), R^p is H, m is 1, A is absent, B is absent, D is absent, E is-(CH2)r-CH=CH-, r is 0, n is 1]",0.2,>100,0.78,32,0.39,0.2,0.39,0.39,0.39,0.39,0.39,0.5,0.25,0.39,0.25,0.2,0.2,0.2,>100,>100,minimum inhibitory concentration (MIC) [17]: >100; minimum inhibitory concentration (MIC) [18]: >100; minimum inhibitory concentration (MIC) [19]: >128; minimum inhibitory concentration (MIC) [20]: >100; minimum inhibitory concentration (MIC) [21]: 0.39; minimum inhibitory concentration (MIC) [22]: 6.2; minimum inhibitory concentration (MIC) [23]: 0.39
"CC[C@H]1OC(=O)[C@H](C)C(=O)[C@H](C)[C@@H](O[C@@H]2O[C@H](C)C[C@H](N(C)C)[C@H]2O)[C@@]2(C)C[C@@H](C)C(=O)[C@H](C)[C@H]3N(CCC=CCO2)C(=O)O[C@]13C [Example 18, Compound of Formula (II), R^p is H, m is 2, A is absent, B is absent, D is absent, E is-(CH2)r-CH=CH-, r is 0, n is 1]",0.39,>100,1.56,128,0.78,0.39,0.78,0.78,0.78,0.78,1.56,2,0.5,0.78,1,0.2,0.2,0.2,>100,>100,minimum inhibitory concentration (MIC) [17]: >100; minimum inhibitory concentration (MIC) [18]: >100; minimum inhibitory concentration (MIC) [19]: >128; minimum inhibitory concentration (MIC) [20]: >100; minimum inhibitory concentration (MIC) [21]: 1.56; minimum inhibitory concentration (MIC) [22]: 12.5; minimum inhibitory concentration (MIC) [23]: 0.78
"CC[C@H]1OC(=O)[C@H](C)[C@@H](O[C@H]2C[C@@](C)(OC)[C@@H](O)[C@H](C)O2)[C@H](C)[C@@H](O[C@@H]2O[C@H](C)C[C@H](N(C)C)[C@H]2O)[C@@]2(C)C[C@@H](C)C(=O)[C@H](C)[C@H]3N(CCNC(=O)Cc4ccccc4C=CCO2)C(=O)O[C@]13C [Example 6, Compound of Formula (I), 2'-R^p is H, 4""-R^p is H, m is 2, A is NH, B is -C(O)-(CH2)q-, q is 1, D is 1,2-phenylene, E is-(CH2)r-CH=CH-, r is 0, n is 1]",0.39,100,3.1,8,0.78,0.1,0.39,0.78,1.56,1.56,0.78,16,0.03,0.78,0.03,0.1,0.1,0.2,>100,>100,minimum inhibitory concentration (MIC) [17]: >100; minimum inhibitory concentration (MIC) [18]: >100; minimum inhibitory concentration (MIC) [19]: >128; minimum inhibitory concentration (MIC) [20]: >100; minimum inhibitory concentration (MIC) [21]: 12.5; minimum inhibitory concentration (MIC) [22]: 0.39; minimum inhibitory concentration (MIC) [23]: 12.5
